Some test systems named below: SK-MEL-5 melanoma; HS 578T breast; UO-31 renal; OVCAR-5 ovarian; SNB-75 CNS; NCI-H460 lung; T-47D breast; 786-0 renal; DU-145 prostate; HOP-92 NSCLC.
What all share (test): NCI-60 cell line screen, 48 h

Where “and” joins values, the source holds several entries; their conditions need not be identical. Equal values may be shown once.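 Cultured in 96-well plates, cells were exposed to test compound for 48 hours across five concentrations. Here, GI50 denotes the concentration required for 50% inhibition of growth. The concentration for full growth arrest is given as TGI.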

`O=C(O[C@H]1CN[C@H](C#Cc2cc3ncnc(Nc4ccc(Cc5ccccc5)cc4)c3s2)C1)N1CCOCC1`: the GI50 is 4.23 µM with SK-MEL-5 melanoma; 3.06 µM in the assay with HS 578T breast; 3.36 µM with UO-31 renal; 9 µM with OVCAR-5 ovarian; 1.87 µM in the assay with SNB-75 CNS; 7.52 µM in the assay on NCI-H460 lung. Also, the GI50 in the assay on T-47D breast was 1.86 µM; with 786-0 renal, 7.3 µM; in the assay with DU-145 prostate it was 4 µM; with HOP-92 NSCLC, 1.7 µM. The TGI was 8.83 µM in the assay with SK-MEL-5 melanoma; above 21.7 µM with HS 578T breast; above 25 µM with UO-31 renal; above 25 µM in the assay with OVCAR-5 ovarian; above 19.4 µM in the assay on SNB-75 CNS; above 25 µM with NCI-H460 lung. For the same molecule, the TGI in the assay on T-47D breast is above 25 µM; in the assay on 786-0 renal, above 25 µM; in the assay with DU-145 prostate, 11 µM; in the assay on HOP-92 NSCLC, 11.5 µM.

Take `Cc1c(NC(=O)CCCl)c(=O)oc2c(C)c3occc(=O)c3cc12`: the TGI with SK-MEL-5 melanoma, in the assay with HS 578T breast, in the assay with UO-31 renal, in the assay on OVCAR-5 ovarian, with SNB-75 CNS and in the assay on NCI-H460 lung was above 100 µM throughout. Besides, the TGI in the assay on T-47D breast, in the assay on 786-0 renal, with DU-145 prostate and with HOP-92 NSCLC was above 100 µM in each case.

In the case of `O=C1C(CN(Cc2ccccc2)Cc2ccccc2)CCCC1CN(Cc1ccccc1)Cc1ccccc1` (centres undefined), the TGI in the assay on SK-MEL-5 melanoma was above 100 µM; in the assay on HS 578T breast, above 100 µM; in the assay with UO-31 renal, 27.3 µM and > 100 µM; with OVCAR-5 ovarian, above 100 µM; with SNB-75 CNS, 49.1 µM and > 100 µM; in the assay on NCI-H460 lung it was above 100 µM. For the same molecule, the TGI in the assay with T-47D breast was above 100 µM; with 786-0 renal, 32.9 µM and > 100 µM; in the assay on DU-145 prostate, above 100 µM; in the assay on HOP-92 NSCLC it was > 52.1 µM and 82.5 µM. Moreover, the GI50 is > 100 µM and 28.1 µM in the assay with HS 578T breast; 16.9 µM and 47.6 µM in the assay with UO-31 renal; 31.1 µM and 76.2 µM in the assay with SNB-75 CNS; 16.8 µM and 55.1 µM in the assay with 786-0 renal.

For `O=[N+]([O-])c1ccc(Oc2cccnc2)c([N+](=O)[O-])c1`, the GI50 with SK-MEL-5 melanoma is 3.04 µM; in the assay with HS 578T breast, 46 µM; in the assay on UO-31 renal, 3.07 µM; in the assay on OVCAR-5 ovarian, 3.26 µM; in the assay with SNB-75 CNS, 2.76 µM; in the assay on NCI-H460 lung it was 10.5 µM. Moreover, the GI50 in the assay with T-47D breast was 7.3 µM; in the assay on 786-0 renal it was 3.43 µM; in the assay with DU-145 prostate, 2.96 µM; in the assay on HOP-92 NSCLC, 2.29 µM. The TGI with SK-MEL-5 melanoma is 11.6 µM; in the assay with HS 578T breast, above 100 µM; in the assay on UO-31 renal, 16.8 µM; in the assay on OVCAR-5 ovarian, 16.9 µM; with SNB-75 CNS, 38.4 µM; in the assay with NCI-H460 lung, 47.8 µM. The TGI is 30.1 µM in the assay on T-47D breast, 26.5 µM with 786-0 renal, 7.44 µM with DU-145 prostate and 13 µM in the assay on HOP-92 NSCLC.

In the case of `CCOC(=O)CC(=O)N(c1ccc(OC)cc1)C(C(=O)OC)c1ccccc1` (centres undefined), the TGI with SK-MEL-5 melanoma, in the assay with HS 578T breast, with UO-31 renal, in the assay with OVCAR-5 ovarian, in the assay on SNB-75 CNS and with NCI-H460 lung was above 100 µM throughout. Also, the TGI with T-47D breast, in the assay on 786-0 renal and in the assay with DU-145 prostate was above 100 µM in each case.

Consider `NC(=O)c1ncn(C2OC(CO)C(O)C2O)n1` (centres undefined), for which the GI50 is above 100 µM with SK-MEL-5 melanoma; above 100 µM in the assay on HS 578T breast; above 100 µM with UO-31 renal; above 100 µM in the assay with OVCAR-5 ovarian; 64.2 µM in the assay on NCI-H460 lung; 49.2 µM in the assay on T-47D breast. For the same molecule, the GI50 in the assay on 786-0 renal is above 100 µM; with DU-145 prostate it was 39.6 µM; with HOP-92 NSCLC, above 100 µM. Moreover, the TGI in the assay on SK-MEL-5 melanoma, in the assay with HS 578T breast, in the assay with UO-31 renal, in the assay on OVCAR-5 ovarian, with NCI-H460 lung and with T-47D breast was above 100 µM in each case. The TGI in the assay with 786-0 renal, with DU-145 prostate and in the assay on HOP-92 NSCLC was above 100 µM throughout.

On to `O=[n+]1cnn([O-])c2ccccc21`, for which the TGI in the assay on HS 578T breast is above 100 µM; in the assay with UO-31 renal, 94.4 µM; in the assay with OVCAR-5 ovarian, above 100 µM; in the assay on SNB-75 CNS it was above 100 µM; with T-47D breast, 29.7 µM; with 786-0 renal, 42.1 µM. Also, the TGI with DU-145 prostate is above 100 µM.

Regarding `C=CC[Se]C(=O)c1ccccc1OC(C)=O`, the GI50 was 1.94 µM in the assay with SK-MEL-5 melanoma; 1.83 µM in the assay on HS 578T breast; 1.48 µM with UO-31 renal; 1.38 µM in the assay on SNB-75 CNS; 0.36 µM with NCI-H460 lung; 2.45 µM in the assay on T-47D breast. Also, the figures for the GI50 in the assay on 786-0 renal, in the assay with DU-145 prostate and in the assay on HOP-92 NSCLC were 1.88 µM, 3.08 µM and 2.28 µM, respectively. Also, the TGI with SK-MEL-5 melanoma turned out to be 4.09 µM; in the assay on HS 578T breast, 6.24 µM; in the assay on UO-31 renal it was 2.81 µM; with SNB-75 CNS, 2.72 µM; in the assay with NCI-H460 lung, 1.84 µM; with T-47D breast, 6.06 µM. The TGI in the assay with 786-0 renal was 3.49 µM; in the assay with DU-145 prostate, 11.6 µM; with HOP-92 NSCLC, 6.12 µM.

Regarding `COc1cc(-c2nn(C)nc2-c2cc3ccccc3s2)cc(OC)c1OC`, the GI50 with SK-MEL-5 melanoma is 0.225 µM; in the assay on HS 578T breast, 0.27 µM; with UO-31 renal, 0.744 µM; in the assay with OVCAR-5 ovarian it was 2.39 µM; in the assay with NCI-H460 lung, 0.0699 µM; in the assay on T-47D breast, above 100 µM. Further, the figures for the GI50 with 786-0 renal, with DU-145 prostate and with HOP-92 NSCLC were 0.312 µM, 0.263 µM and 0.0806 µM, respectively. The TGI in the assay with SK-MEL-5 melanoma, in the assay with HS 578T breast, in the assay with UO-31 renal, in the assay on OVCAR-5 ovarian, in the assay on NCI-H460 lung and in the assay with T-47D breast was above 100 µM each time. Further, the TGI is above 100 µM with 786-0 renal, above 100 µM with DU-145 prostate and 78.7 µM in the assay on HOP-92 NSCLC.

On to `O=C1OCC2=C1C(c1ccccc1)c1cc3c(cc1N2CCO)CCC3` (centres undefined), for which the GI50 in the assay on SK-MEL-5 melanoma was 0.0762 µM; with HS 578T breast it was 0.0739 µM; with UO-31 renal, 0.117 µM; in the assay with OVCAR-5 ovarian it was 0.203 µM; with SNB-75 CNS, 0.0786 µM; in the assay on NCI-H460 lung it was 0.09 µM. Besides, the GI50 is 0.0922 µM in the assay on T-47D breast, 0.0988 µM in the assay with 786-0 renal and 0.0778 µM with DU-145 prostate. Further, the TGI is 5.41 µM in the assay on SK-MEL-5 melanoma; above 20.1 µM with UO-31 renal; above 25 µM in the assay with OVCAR-5 ovarian; above 25 µM in the assay on SNB-75 CNS; 3.51 µM in the assay with NCI-H460 lung; above 25 µM with T-47D breast. Further, the figures for the TGI in the assay with 786-0 renal and in the assay with DU-145 prostate were above 14.5 µM and 0.464 µM, respectively.

As for `O=C(/C=C/c1ccccc1O)c1ccccc1`, the GI50 in the assay with SK-MEL-5 melanoma is 11.5 µM; in the assay on HS 578T breast, 5.67 µM; with UO-31 renal it was 1.68 µM; in the assay with OVCAR-5 ovarian, 15.3 µM; in the assay on NCI-H460 lung, 14.2 µM; with T-47D breast it was 14.7 µM. The GI50 is 14.4 µM with 786-0 renal, 5.86 µM with DU-145 prostate and 8.77 µM in the assay with HOP-92 NSCLC. For the same molecule, the TGI with SK-MEL-5 melanoma was 23.9 µM; with HS 578T breast it was 30.4 µM; in the assay on UO-31 renal, 15.7 µM; in the assay with OVCAR-5 ovarian, 31.1 µM; with NCI-H460 lung, 29 µM; in the assay on T-47D breast, 64.5 µM. The TGI in the assay on 786-0 renal was 29.7 µM; in the assay on DU-145 prostate, 18.7 µM; in the assay with HOP-92 NSCLC, 23 µM.

`O=C(Nc1cccc(-n2cc(-c3ccncc3)c(-c3cc(O)cc(Cl)c3)n2)c1)Nc1ccc(Cl)c(Cl)c1`: the GI50 with SK-MEL-5 melanoma was 1.62 µM; with HS 578T breast it was 3.23 µM; in the assay on UO-31 renal, 1.91 µM; with OVCAR-5 ovarian it was 2.14 µM; in the assay on SNB-75 CNS it was 1.38 µM; with NCI-H460 lung it was 2.18 µM. The GI50 in the assay with T-47D breast was 2.39 µM; with 786-0 renal, 1.48 µM; in the assay with DU-145 prostate it was 2.8 µM. Further, the TGI with SK-MEL-5 melanoma was 3.04 µM; in the assay with HS 578T breast, above 100 µM; in the assay with UO-31 renal it was 6.51 µM; in the assay with OVCAR-5 ovarian it was 6.16 µM; with SNB-75 CNS it was 4.82 µM; in the assay with NCI-H460 lung it was 6.14 µM. In addition, the TGI with T-47D breast was 6.17 µM; in the assay on 786-0 renal, 3.71 µM; with DU-145 prostate, 10.1 µM.

Take `NC(Cc1cc(Br)c(O)c(Br)c1)C(=O)O` (centres undefined): the TGI with SK-MEL-5 melanoma, in the assay on HS 578T breast, in the assay with OVCAR-5 ovarian, in the assay with SNB-75 CNS, in the assay with NCI-H460 lung and in the assay on T-47D breast was above 100 µM each time. Also, the TGI in the assay with 786-0 renal, in the assay on DU-145 prostate and in the assay on HOP-92 NSCLC was above 100 µM each time.

Take `CCCCC(SC(=S)N(CC)CC)C(=O)Nc1nc(CC(=O)OCC)cs1` (centres undefined): the GI50 was 13.5 µM in the assay with SK-MEL-5 melanoma; 47.9 µM with HS 578T breast; 47.6 µM with UO-31 renal; 40.3 µM with OVCAR-5 ovarian; 67 µM with SNB-75 CNS; 24.7 µM in the assay with T-47D breast. Also, the values for the GI50 with 786-0 renal, with DU-145 prostate and in the assay with HOP-92 NSCLC were above 100 µM, 98.3 µM and 53.1 µM, respectively. Moreover, the TGI with SK-MEL-5 melanoma was 30.9 µM; in the assay on HS 578T breast, above 100 µM; in the assay on UO-31 renal it was above 100 µM; in the assay with OVCAR-5 ovarian, above 100 µM; in the assay on SNB-75 CNS it was above 100 µM; with T-47D breast, above 100 µM. Besides, the TGI in the assay on 786-0 renal, in the assay with DU-145 prostate and with HOP-92 NSCLC was above 100 µM in each case.

The record behind these values is PubChem BioAssay (NCI).
